Read-outs that look alike come from different tables or passages of the source.
What was measured:
[1] = test system: Recombinant Respiratory Syncytial virus strain A2 containing the firefly luciferase reporter (RSV-Fluc); test: microbe, parasite or virus in culture; type: cell-based; details: human respiratory syncytial virus, NHBE
[2] = test system: SARS-CoV-2; test: microbe, parasite or virus in culture; type: cell-based; details: Severe acute respiratory syndrome coronavirus 2, read-out: SARS EC50
[3] = MT4 cytotoxicity (CC50); details: human, MT4 cells
[4] = 72 h, read-out: RSV-Fluc EC50 (NHBE), NHBE cells, three days, Table 2

Compound | EC50 [1, 4] [nM] | EC50 ([1]; read-out: RSV EC50, Table 2a) [nM] | EC50 [2] [nM] | CC50 ([3]; MT4 CC50, Table 2a) [nM] | EC50 ([1]; read-out: RSV EC50, Table 4) [nM] | CC50 ([3]; MT4 CC50, Table 4) [nM]
CCCCCCCCCCCCCCCCCCOC[C@H](COP(=O)(O)OC[C@H]1O[C@@](C#N)(c2ccc3c(N)ncnn23)[C@H](O)[C@@H]1O)OCc1ccc(Cl)cc1Cl [Example 62, ((2R,3S,4R,5R)-5-(4-aminopyrrolo[2,1-f][1,2,4]triazin-7-yl)-5-cyano-3,4-dihydroxytetrahydrofuran-2-yl)methyl ((R)-2-((2,4-dichlorobenzyl)oxy)-3-(octadecyloxy)propyl) hydrogen phosphate] | 220 | 217 | 8620 | 12600 |  | 
CCCCCCCCCCCCCCCCCCOC[C@H](COP(=O)(O)OC[C@H]1O[C@@](C#N)(c2ccc3c(N)ncnn23)[C@H](O)[C@@H]1O)Oc1cccc(C#N)c1 [Example 30, ((2R,3S,4R,5R)-5-(4-aminopyrrolo[2,1-f][1,2,4]triazin-7-yl)-5-cyano-3,4-dihydroxytetrahydrofuran-2-yl)methyl ((R)-2-(3-cyanophenoxy)-3-(octadecyloxy)propyl) hydrogen phosphate] | 17 | 17 | 97 | 188 |  | 
CCCCCCCCCCCCCCCCCOC[C@H](COP(=O)(O)OC[C@H]1O[C@@](C#N)(c2ccc3c(N)ncnn23)[C@H](O)[C@@H]1O)OCc1ccc(OC)cc1 [Example 37, ((2R,3S,4R,5R)-5-(4-aminopyrrolo[2,1-f][1,2,4]triazin-7-yl)-5-cyano-3,4-dihydroxytetrahydrofuran-2-yl)methyl ((R)-3-(heptadecyloxy)-2-((4-methoxybenzyl)oxy)propyl) hydrogen phosphate] |  | 39 | 371 | 1580 |  | 
CCCCCCCCCCCCCCCCOC[C@H](COP(=O)(O)OC[C@H]1O[C@@](C#N)(c2ccc3c(N)ncnn23)[C@H](O)[C@@H]1O)OCc1ccc(C#N)cc1 [Example 96, ((2R,3S,4R,5R)-5-(4-aminopyrrolo[2,1-f][1,2,4]triazin-7-yl)-5-cyano-3,4-dihydroxytetrahydrofuran-2-yl)methyl ((R)-2-((4-cyanobenzyl)oxy)-3-(hexadecyloxy)propyl) hydrogen phosphate] |  |  | 43 |  | 23 | 511
CCCCCCCCCCCCCCCCCCOC[C@H](COP(=O)(O)OC[C@H]1O[C@@](C#N)(c2ccc3c(N)ncnn23)[C@H](O)[C@@H]1O)OCc1cccc(C(F)F)c1 [Example 32, ((2R,3S,4R,5R)-5-(4-aminopyrrolo[2,1-f][1,2,4]triazin-7-yl)-5-cyano-3,4-dihydroxytetrahydrofuran-2-yl)methyl ((R)-2-((3-(difluoromethyl)benzyl)oxy)-3-(octadecyloxy)propyl) hydrogen phosphate] |  | 64 | 3040 | 2660 |  | 
CCCCCCCCCCCCCCCCCCOC[C@H](COP(=O)(O)OC[C@H]1O[C@@](C#N)(c2ccc3c(N)ncnn23)[C@H](O)[C@@H]1O)OCc1cc(F)ccc1C#N [Example 51, ((2R,3S,4R,5R)-5-(4-aminopyrrolo[2,1-f][1,2,4]triazin-7-yl)-5-cyano-3,4-dihydroxytetrahydrofuran-2-yl)methyl ((R)-2-((2-cyano-5-fluorobenzyl)oxy)-3-(octadecyloxy)propyl) hydrogen phosphate] |  |  | 1650 | 2140 |  | 
CCCCCCCCCCCCCCCCCCCCOC[C@H](COP(=O)(O)OC[C@H]1O[C@@](C#N)(c2ccc3c(N)ncnn23)[C@H](O)[C@@H]1O)OCc1cc(F)cc(C#N)c1 [Example 125, ((2R,3S,4R,5R)-5-(4-aminopyrrolo[2,1-f][1,2,4]triazin-7-yl)-5-cyano-3,4-dihydroxytetrahydrofuran-2-yl)methyl ((R)-2-((3-cyano-5-fluorobenzyl)oxy)-3-(icosyloxy)propyl) hydrogen phosphate] |  |  |  |  | 129 | 2080

From patent US12030904B2 (priority 2020, dated 2024)
